# In patent publication EP0241618A2, “Phenyl ethanol amine derivative for use as an oncolytic medicament” (ELI LILLY AND COMPANY, priority 1985, dated 1987):
# Legend:
# [1] = test system: 6C3HED Lymphosarcoma; experiment: In vivo tumor growth inhibition, subcutaneously implanted tumor in mice; settings: intravenous injection twice daily for five days, started the day following inoculation
# Method: (§1) The compound of the above example has been extensively evaluated for oncolytic activity in in vivo laboratory studies. In a typical experiment, laboratory mice were infected by subcutaneous implantation of a tumor tissue in the axillary region of the body. The implantations were accomplished by means of a trocar. Initial tumor size in each animal generally was about 2 square millimeters. Control animals received saline. Tumors were measured using vernier calipers (length and width in mm) following a specified period of treatment. The length and width measurements were converted to tumor weight by the formula: • The percent inhibition of tumor growth was then calculated for each dose level at which the compound was evaluated. Typical tumor systems implanted and against which the compound was evaluated include the CA-755 strain of adenocarcinoma, the M-5 ovarian carcinoma, the 6C3HED lymphosarcoma, the X-5563 plasma cell myeloma, the Lewis lung carcinoma, colon carcinoma-26, and C3H mammary adenocarcinoma.
# (§2) Each test group consisted of ten mice. R-N-(2-phenyl-2-hydroxyethyl)-1,i-dimethyl-3-(4-aminocarbonylphenyl)propylamine hydrochloride was dissolved in 5% aqueous saline and administered twice daily for five days as a 0.2 ml intravenous injection. Treatment was initiated on the day following inoculation of the test animals.
# [2] = test system: C3H Mammary Adenocarcinoma; experiment: as above; settings: intravenous injection twice daily for five days, started the day following inoculation
# Method: as §1, §2
# [3] = test system: CA-755 Adenocarcinoma; experiment: as above; settings: intravenous injection twice daily for five days, started the day following inoculation
# Method: as §1, §2
# [4] = test system: Lewis Lung Carcinoma; experiment: as above; settings: intravenous injection twice daily for five days, started the day following inoculation
# Method: as §1, §2
# [5] = test system: X-5563 Plasma Cell Myeloma; experiment: as above; settings: intravenous injection twice daily for five days, started the day following inoculation
# Method: as §1, §2
# [6] = test system: Colon Carcinoma-26; experiment: In vivo tumor growth inhibition, delayed treatment of established tumor in mice; settings: I.V. injection twice daily for five days, 3 days delay following inoculation
# Method: as §1
# (§3) Table II presents the results of studies carried out substantially as described above, except the treatment regimens were delayed for a short period following inoculation to permit the tumor to become established and start growing. Treatment consisted of I.V. injection of 02 ml of the appropriate amount of R-N-(2-phenyl-2-hydroxyethyl)-1,1-dimethyl-3-(4-aminocarbonylphenyl)propylamine hydrochloride in 5% aqueous saline twice daily for five days. Tumors were then measured as described above and compared with untreated controls.
# [7] = test system: M-5 Ovarian Carcinoma; experiment: as above; settings: I.V. injection twice daily for five days, 5 days delay following inoculation
# Method: as §1, §3
# [8] = test system: cell culture; experiment: Antimitotic activity in cell culture; assay type: cell-based; settings: concentration at which activity is seen
# Text: (§4) The potent oncolytic activity of the compound to be employed in the present method of treatment has been established in standard tests designed to evaluate antitumor activity. […] The effect on spindle; microtubules appears to reflect a specific effect on the microtubule organizing center of the spindle, i.e., the centrosomes. These studies have been documented by immunofluorescent light microscopy, transmission electron microscopy and flow cytometric techniques. […] In cell culture, the compound has antimitotic activity at 2.5 u.g/ml and affects mitochondrial function at 0.01 u.g/ml as measured by alterations in Rhodamine 123 binding.
# [9] = test system: Chinese hamster ovary cells; experiment: Cell cycle accumulation in cells grown in low calcium medium; assay type: cell-based
# Text: as §4
# [10] = test system: cytoplasmic microtubules; experiment: Cell biology studies of microtubules (immunofluorescent light microscopy, transmission electron microscopy, flow cytometry); assay type: cell-based; settings: appears to affect only the spindle microtubules
# Text: as §4
structure (smiles),measurement,setting,value
"CC(C)(CCc1ccc(C(N)=O)cc1)NC[C@H](O)c1ccccc1.Cl [Compound, R-N-(2-phenyl-2-hydroxyethyl)-1,1-dimethyl-3-(4-aminocarbonylphenyl)propylamine hydrochloride]",% Inhibition,[1]; Dose 20 mg/kg,11%
same,% Inhibition,[1]; Dose 40 mg/kg,9%
same,% Inhibition,[1]; Dose 80 mg/kg,23%
same,% Inhibition,[2]; Dose 20 mg/kg,57%
same,% Inhibition,[2]; Dose 40 mg/kg,95%
same,% Inhibition,[2]; Dose 80 mg/kg,96%
same,% Inhibition,[3]; Dose 10 mg/kg,79%
same,% Inhibition,[3]; Dose 20 mg/kg,95%
same,% Inhibition,[3]; Dose 40 mg/kg,92%
same,% Inhibition,[3]; Dose 80 mg/kg,95%
same,% Inhibition,[4]; Dose 20 mg/kg,35%
same,% Inhibition,[4]; Dose 40 mg/kg,68%
same,% Inhibition,[4]; Dose 80 mg/kg,81%
same,% Inhibition,[5]; Dose 20 mg/kg,29%
same,% Inhibition,[5]; Dose 40 mg/kg,21%
same,% Inhibition,[5]; Dose 80 mg/kg,65%
same,% Inhibition,[6]; Dose 20 (mg/ml),30%
same,Deaths/total mice in group,[6]; Dose 20 (mg/ml),0/10
same,% Inhibition,[6]; Dose 40 (mg/ml),61%
same,Deaths/total mice in group,[6]; Dose 40 (mg/ml),1/10
same,% Inhibition,[6]; Dose 80 (mg/ml),64%
same,Deaths/total mice in group,[6]; Dose 80 (mg/ml),4/9
same,% Inhibition,[7]; Dose 20 (mg/ml),40%
same,Deaths/total mice in group,[7]; Dose 20 (mg/ml),0/10
same,% Inhibition,[7]; Dose 40 (mg/ml),61%
same,Deaths/total mice in group,[7]; Dose 40 (mg/ml),0/10
same,% Inhibition,[7]; Dose 80 (mg/ml),81%
same,Deaths/total mice in group,[7]; Dose 80 (mg/ml),0/10
same,minimal effective concentration,[8],2.5 µg/mL
same,S-phase accumulation,[9],causes an S-phase accumulation
same,effect on cytoplasmic microtubules,[10],no apparent effect
